Reference: paper PMC7100991 (PLoS Pathogens, 2020)

Molecular target: T1, Fusarium graminearum myosin I (FgMyoI) (Fusarium graminearum, UniProt I1RCT2)
T1 construct: gene FGRAMPH1_01T03465
Assay: biochemical

With `CCOC(=O)/C(C#N)=C(\N)c1ccccc1` [phenamacril] the IC50 was 360 nM.
